Measured values from patent US20230382925A1, “MODULATORS OF CYSTIC FIBROSIS TRANSMEMBRANE CONDUCTANCE REGULATOR” (VERTEX PHARMACEUTICALS INCORPORATED, priority 2020, published 2023).
Like-named read-outs stand apart in the source and are kept apart here.

Biological target: CFTR (Homo sapiens, UniProt P13569)
Test: Membrane Potential Dye, Enteroid Assay B
Type: cell-based
Procedure, shortened: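 Activity given as % of a triple-combination reference (1 μM and 3 μM correctors, 300 nM acute potentiator). Enteroids were preincubated 18-24 h with compound; chloride efflux then measured 15 min by methyl oxonol fluorescence after forskolin/IBMX/Compound III stimulation in chloride-free buffer containing CaCCinh-A01 and Chicago Sky Blue.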

[1] = Table 10, read-out: Ent. B EC50

Chain of CFTR (P13569 with tags, fused parts or gaps DEL508-508): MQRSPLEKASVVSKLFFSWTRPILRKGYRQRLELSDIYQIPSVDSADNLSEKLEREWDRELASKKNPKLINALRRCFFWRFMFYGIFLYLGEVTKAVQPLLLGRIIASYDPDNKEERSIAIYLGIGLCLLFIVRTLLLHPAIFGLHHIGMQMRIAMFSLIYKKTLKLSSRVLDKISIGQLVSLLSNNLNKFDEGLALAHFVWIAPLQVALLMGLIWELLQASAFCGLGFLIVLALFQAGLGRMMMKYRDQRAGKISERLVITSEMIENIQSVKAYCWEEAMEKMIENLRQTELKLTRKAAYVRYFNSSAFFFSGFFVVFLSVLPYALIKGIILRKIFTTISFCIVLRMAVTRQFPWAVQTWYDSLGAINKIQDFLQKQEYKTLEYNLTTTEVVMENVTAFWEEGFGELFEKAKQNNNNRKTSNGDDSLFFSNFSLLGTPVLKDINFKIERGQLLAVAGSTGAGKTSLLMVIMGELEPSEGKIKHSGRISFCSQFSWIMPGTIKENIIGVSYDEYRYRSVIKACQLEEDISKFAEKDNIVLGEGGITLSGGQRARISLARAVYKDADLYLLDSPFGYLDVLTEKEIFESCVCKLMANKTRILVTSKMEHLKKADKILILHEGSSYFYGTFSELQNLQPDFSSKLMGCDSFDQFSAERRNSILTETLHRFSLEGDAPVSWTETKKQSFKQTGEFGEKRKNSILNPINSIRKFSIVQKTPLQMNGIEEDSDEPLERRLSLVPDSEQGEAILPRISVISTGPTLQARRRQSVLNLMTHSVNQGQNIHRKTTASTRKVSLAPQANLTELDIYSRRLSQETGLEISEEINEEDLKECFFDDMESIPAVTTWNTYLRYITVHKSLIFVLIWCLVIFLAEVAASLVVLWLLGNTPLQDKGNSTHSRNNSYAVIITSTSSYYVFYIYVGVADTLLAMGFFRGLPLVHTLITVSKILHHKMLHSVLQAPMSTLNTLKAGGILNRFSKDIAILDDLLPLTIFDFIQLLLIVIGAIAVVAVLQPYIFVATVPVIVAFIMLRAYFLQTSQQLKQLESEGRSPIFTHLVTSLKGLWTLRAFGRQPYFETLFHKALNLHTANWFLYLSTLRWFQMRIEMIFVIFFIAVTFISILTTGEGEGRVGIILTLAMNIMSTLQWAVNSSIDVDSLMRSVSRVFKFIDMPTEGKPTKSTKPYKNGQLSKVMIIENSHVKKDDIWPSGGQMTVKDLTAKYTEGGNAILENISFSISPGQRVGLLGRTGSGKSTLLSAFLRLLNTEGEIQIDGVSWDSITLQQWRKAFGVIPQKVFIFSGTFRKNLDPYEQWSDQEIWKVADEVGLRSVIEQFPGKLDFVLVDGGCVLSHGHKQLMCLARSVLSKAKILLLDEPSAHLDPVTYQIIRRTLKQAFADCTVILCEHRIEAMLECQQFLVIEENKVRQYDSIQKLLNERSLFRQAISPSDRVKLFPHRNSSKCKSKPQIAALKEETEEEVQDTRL

Cc1cccc(C)c1-c1cc2nc(n1)NS(=O)(=O)c1cccc(c1)C(=O)N(C1CC(N[C@H]3CC[C@H](O)CC3)C1)[C@H](CC(C)C)CO2 (stereo in doubt) [Compound 372]
Ent. B Max Activity (%) (Table 9): +++ (+++ is >60%)
EC50 (Table 9, read-out: Ent. B EC50): < 1000 nM

COCCCN(C)[C@H]1C[C@@H](N2C(=O)c3cccc(c3)S(=O)(=O)Nc3nc(cc(-c4c(C)cccc4C)n3)OC[C@H]2CC(C)C)C1 (stereo in doubt) [Compound 379]
Ent. B Max Activity (%) (Table 9): +++ (+++ is >60%)
EC50 (Table 9, read-out: Ent. B EC50): < 1000 nM

Cc1cccc(C)c1-c1cc2nc(n1)NS(=O)(=O)c1cccc(c1)C(=O)N(C1CC3(C1)CC(O)(CC(C)C)C3)[C@H](CC(C)(C)C)CO2 (stereo in doubt) [Compound 404]
Ent. B Max Activity (%) (Table 10): +++ (+++ is >60%)
EC50 [1]: < 1000 nM

Cc1cccc(C)c1-c1cc2nc(n1)NS(=O)(=O)c1cccc(c1)C(=O)N(C1CC3(C1)CC(O)(CC(C)C)C3)[C@H](CC(C)(C)C)CO2 (stereo in doubt) [Compound 405]
Ent. B Max Activity (%) (Table 10): +++ (+++ is >60%)
EC50 [1]: < 1000 nM

Cc1cccc(C)c1-c1cc2nc(n1)NS(=O)(=O)c1cccc(n1)C(=O)N([C@H]1C[C@@H](C(C)(C)O)C1)[C@H](CC(C)(C)C)CO2 (stereo in doubt) [Compound 411]
Ent. B Max Activity (%) (Table 10): +++ (+++ is >60%)
EC50 [1]: < 1000 nM

[H][C@]1(N2C(=O)c3cccc(c3)S(=O)(=O)Nc3nc(cc(-c4c(C)cccc4C)n3)OC[C@H]2CC(C)C)C[C@@]2(C[C@H](C(C)(C)O)C2)C1 (stereo in doubt) [Compound 412]
Ent. B Max Activity (%) (Table 10): +++ (+++ is >60%)
EC50 [1]: < 1000 nM

[H][C@]1(N2C(=O)c3cccc(c3)S(=O)(=O)Nc3nc(cc(-c4c(C)cccc4C)n3)OC[C@H]2CC(C)C)C[C@@]2(C[C@H](C(C)(C)O)C2)C1 (stereo in doubt) [Compound 413]
Ent. B Max Activity (%) (Table 10): +++ (+++ is >60%)
EC50 [1]: < 1000 nM

Cc1cccc(C)c1-c1cc2nc(n1)NS(=O)(=O)c1cccc(c1)C(=O)N(C1CC(NC(=O)C(C)C)C1)[C@H](CC(C)(C)C)CO2 (stereo in doubt) [Compound 445]
Ent. B Max Activity (%) (Table 9): +++ (+++ is >60%)
EC50 (Table 9, read-out: Ent. B EC50): < 1000 nM

CCC(=O)NC1CC(N2C(=O)c3cccc(c3)S(=O)(=O)Nc3nc(cc(-c4c(C)cccc4C)n3)OC[C@H]2CC(C)(C)C)C1 (stereo in doubt) [Compound 446]
Ent. B Max Activity (%) (Table 9): +++ (+++ is >60%)
EC50 (Table 9, read-out: Ent. B EC50): < 1000 nM

CCC(=O)NC1CC(N2C(=O)c3cccc(c3)S(=O)(=O)Nc3nc(cc(-c4c(C)cccc4C)n3)OC[C@H]2CC(C)(C)C)C1 (stereo in doubt) [Compound 447]
Ent. B Max Activity (%) (Table 9): +++ (+++ is >60%)
EC50 (Table 9, read-out: Ent. B EC50): < 1000 nM

CC(=O)NC1CC(N2C(=O)c3cccc(c3)S(=O)(=O)Nc3nc(cc(-c4c(C)cccc4C)n3)OC[C@H]2CC(C)(C)C)C1 (stereo in doubt) [Compound 449]
Ent. B Max Activity (%) (Table 9): +++ (+++ is >60%)
EC50 (Table 9, read-out: Ent. B EC50): < 1000 nM

Cc1cccc(C)c1-c1cc2nc(n1)NS(=O)(=O)c1cccc(c1)C(=O)N(C1CC(NC(=O)OC(C)C)C1)[C@H](CC(C)(C)C)CO2 (stereo in doubt) [Compound 450]
Ent. B Max Activity (%) (Table 9): +++ (+++ is >60%)
EC50 (Table 9, read-out: Ent. B EC50): < 1000 nM

Cc1cccc(C)c1-c1cc2nc(n1)NS(=O)(=O)c1cccc(c1)C(=O)N(C1CC(NC(=O)OC(C)C)C1)[C@H](CC(C)(C)C)CO2 (stereo in doubt) [Compound 451]
Ent. B Max Activity (%) (Table 9): +++ (+++ is >60%)
EC50 (Table 9, read-out: Ent. B EC50): < 1000 nM

COC1CC(N2C(=O)c3cccc(c3)S(=O)(=O)Nc3nc(cc(-c4c(C)cccc4C)n3)OC[C@H]2CC2(C(F)(F)F)CC2)C1 (stereo in doubt) [Compound 465]
Ent. B Max Activity (%): +++ (+++ is >60%)
EC50 (read-out: Ent. B EC50): < 1000 nM

COC1CC(N2C(=O)c3cccc(c3)S(=O)(=O)Nc3nc(cc(-c4c(C)cccc4C)n3)OC[C@H]2CC2(C(F)(F)F)CC2)C1 (stereo in doubt) [Compound 466]
Ent. B Max Activity (%): +++ (+++ is >60%)
EC50 (read-out: Ent. B EC50): < 1000 nM

Cc1cccc(CO)c1-c1cc2nc(n1)NS(=O)(=O)c1cccc(c1)C(=O)N(C1CC3(CC3)C1)[C@H](CC(C)C)CO2 [Compound 2, (11R)-6-[2-(Hydroxymethyl)-6-methyl-phenyl]-11-isobutyl-2,2-dioxo-12-spiro[2.3]hexan-5-yl-9-oxa-2λ^6-thia-3,5,12,19-tetrazatricyclo[12.3.1.14,8]nonadeca-1(18),4(19),5,7,14,16-hexaen-13-one]
Ent. B Max Activity (%) (Table 10): ++ (++ is 30-60%)
EC50 [1]: < 1000 nM

Cc1cccc(C)c1-c1cc2nc(n1)NS(=O)(=O)c1cccc(c1)C(=O)N(C1CC3(CCN(C4COC4)CC3)C1)[C@H](CC(C)C)CO2 [Compound 24, (11R)-6-(2,6-Dimethylphenyl)-11-isobutyl-12-[7-(oxetan-3-yl)-7-azaspiro[3.5]nonan-2-yl]-2,2-dioxo-9-oxa-2λ^6-thia-3,5,12,19-tetrazatricyclo[12.3.1.14,8]nonadeca-1(18),4(19),5,7,14,16-hexaen-13-one]
Ent. B Max Activity (%) (Table 9): +++ (+++ is >60%)
EC50 (Table 9, read-out: Ent. B EC50): < 1000 nM

Cc1cccc(C)c1-c1cc2nc(n1)NS(=O)(=O)c1cccc(c1)C(=O)N(C1CC3(CCN(C(=O)CO)CC3)C1)[C@H](CC(C)C)CO2 [Compound 25, (11R)-6-(2,6-Dimethylphenyl)-12-[7-(2-hydroxyacetyl)-7-azaspiro[3.5]nonan-2-yl]-11-isobutyl-2,2-dioxo-9-oxa-2λ^6-thia-3,5,12,19-tetrazatricyclo[12.3.1.14,8]nonadeca-1(18),4(19),5,7,14,16-hexaen-13-one]
Ent. B Max Activity (%) (Table 9): +++ (+++ is >60%)
EC50 (Table 9, read-out: Ent. B EC50): < 1000 nM

Cc1cccc(C)c1-c1cc2nc(n1)NS(=O)(=O)c1cccc(c1)C(=O)N(C1CC3(CCN(C(=O)N(C)C)CC3)C1)[C@H](CC(C)C)CO2 [Compound 26, 2-[(11R)-6-(2,6-Dimethylphenyl)-11-isobutyl-2,2,13-trioxo-9-oxa-2λ^6-thia-3,5,12,19-tetrazatricyclo[12.3.1.14,8]nonadeca-1(18),4(19),5,7,14,16-hexaen-12-yl]-N,N-dimethyl-7-azaspiro[3.5]nonane-7-carboxamide]
Ent. B Max Activity (%) (Table 9): +++ (+++ is >60%)
EC50 (Table 9, read-out: Ent. B EC50): < 1000 nM

CO[C@H]1C[C@H]2CC(N3C(=O)c4cccc(c4)S(=O)(=O)Nc4nc(cc(-c5c(C)cccc5C)n4)OC[C@H]3CC(C)C)C[C@H]2C1 (stereo partly drawn) [Compound 37, (11R)-12-[(3aR,6aS)-5-Methoxy-1,2,3,3a,4,5,6,6a-octahydropentalen-2-yl]-6-(2,6-dimethylphenyl)-11-isobutyl-2,2-dioxo-9-oxa-2λ^6-thia-3,5,12,19-tetrazatricyclo[12.3.1.14,8]nonadeca-1(18),4(19),5,7,14,16-hexaen-13-one]
Ent. B Max Activity (%) (Table 9): +++ (+++ is >60%)
EC50 (Table 9, read-out: Ent. B EC50): < 1000 nM

Cc1cccc(C)c1-c1cc2nc(n1)NS(=O)(=O)c1cccc(c1)C(=O)N(C1CS(=O)(=O)C1)[C@H](CC(C)C)CO2 [Compound 41, (11R)-6-(2,6-Dimethylphenyl)-12-(1,1-dioxothietan-3-yl)-11-isobutyl-2,2-dioxo-9-oxa-2λ^6-thia-3,5,12,19-tetrazatricyclo[12.3.1.14,8]nonadeca-1(18),4(19),5,7,14,16-hexaen-13-one]
Ent. B Max Activity (%) (Table 10): +++ (+++ is >60%)
EC50 [1]: < 1000 nM

Cc1cccc(C)c1-c1cc2nc(n1)NS(=O)(=O)c1cccc(c1)C(=O)N(C1CC(OC(=O)N(C)C)C1)[C@H](CC(C)C)CO2 (stereo partly drawn) [Compound 48, [3-[(11R)-6-(2,6-dimethylphenyl)-11-isobutyl-2,2,13-trioxo-9-oxa-2λ^6-thia-3,5,12,19-tetrazatricyclo[12.3.1.14,8]nonadeca-1(18),4(19),5,7,14,16-hexaen-12-yl]cyclobutyl] N,N-dimethylcarbamate]
Ent. B Max Activity (%) (Table 10): ++ (++ is 30-60%)
EC50 [1]: < 1000 nM

Cc1cccc(C)c1-c1cc2nc(n1)NS(=O)(=O)c1cccc(c1)C(=O)N(C1CC(C)(OC(F)(F)F)C1)[C@H](CC(C)C)CO2 (stereo partly drawn) [Compound 49, (11R)-6-(2,6-dimethylphenyl)-11-isobutyl-12-[3-methyl-3-(trifluoromethoxy)cyclobutyl]-2,2-dioxo-9-oxa-2λ^6-thia-3,5,12,19-tetrazatricyclo[12.3.1.14,8]nonadeca-1(18),4(19),5,7,14,16-hexaen-13-one]
Ent. B Max Activity (%) (Table 10): ++ (++ is 30-60%)
EC50 [1]: < 1000 nM

Cc1cccc(C)c1-c1cc2nc(n1)NS(=O)(=O)c1cccc(c1)C(=O)N(C1CC(C)(OC(F)(F)F)C1)[C@H](CC(C)C)CO2 (stereo partly drawn) [Compound 50, (11R)-6-(2,6-dimethylphenyl)-11-isobutyl-12-[3-methyl-3-(trifluoromethoxy)cyclobutyl]-2,2-dioxo-9-oxa-2λ^6-thia-3,5,12,19-tetrazatricyclo[12.3.1.14,8]nonadeca-1(18),4(19),5,7,14,16-hexaen-13-one]
Ent. B Max Activity (%) (Table 10): ++ (++ is 30-60%)
EC50 [1]: < 1000 nM

Cc1cccc(C)c1-c1cc2nc(n1)NS(=O)(=O)c1cccc(c1)C(=O)N(C1CC3(CC3)C1)[C@H](CCC(C)(C)O)CO2 [Compound 52, (11R)-6-(2,6-Dimethylphenyl)-11-(3-hydroxy-3-methyl-butyl)-2,2-dioxo-12-spiro[2.3]hexan-5-yl-9-oxa-2λ^6-thia-3,5,12,19-tetrazatricyclo[12.3.1.14,8]nonadeca-1(18),4(19),5,7,14,16-hexaen-13-one]
Ent. B Max Activity (%) (Table 10): ++ (++ is 30-60%)
EC50 [1]: < 1000 nM

COC1CN([C@H]2C[C@@H](N3C(=O)c4cccc(c4)S(=O)(=O)Nc4nc(cc(-c5c(C)cccc5C)n4)OC[C@H]3CC(C)C)C2)C1 [Compound 65, (11R)-6-(2,6-dimethylphenyl)-11-isobutyl-12-[3-(3-methoxyazetidin-1-yl)cyclobutyl]-2,2-dioxo-9-oxa-2λ^6-thia-3,5,12,19-tetrazatricyclo[12.3.1.14,8]nonadeca-1(18),4(19),5,7,14,16-hexaen-13-one]
Ent. B Max Activity (%) (Table 9): +++ (+++ is >60%)
EC50 (Table 9, read-out: Ent. B EC50): < 1000 nM
